# From ChEMBL document CHEMBL4304773, “Nitroimidazole-containing compounds and their antibacterial and antitubercular activities” (2019)
# How the values were obtained:
# Format in all cases: functional
# Escherichia coli [1] = test: Antibacterial activity against Escherichia coli ATCC 25922 after 24 hrs; conditions: ATCC 25922, 24 h
# Staphylococcus aureus [2] = test: Antibacterial activity against methicillin-resistant Staphylococcus aureus after 24 hrs
# Klebsiella pneumoniae [3] = test: Antibacterial activity against Klebsiella pneumoniae after 24 hrs
# Pseudomonas aeruginosa [4] = test: Antibacterial activity against Pseudomonas aeruginosa after 24 hrs
# Staphylococcus aureus [5] = test: Antibacterial activity against Staphylococcus aureus ATCC 25923 after 24 hrs; conditions: ATCC 25923, 24 h
# Enterococcus faecalis [6] = test: Antibacterial activity against Enterococcus faecalis after 24 hrs
# Staphylococcus aureus [7] = test: Antibacterial activity against Staphylococcus aureus ATCC 29213 after 24 hrs; conditions: ATCC 29213, 24 h
# Pseudomonas aeruginosa [8] = test: Antibacterial activity against Pseudomonas aeruginosa ATCC 27853 after 24 hrs; conditions: ATCC 27853, 24 h
# Pseudomonas aeruginosa [9] = test: Antibacterial activity against Pseudomonas aeruginosa
# Candida albicans = test: Antifungal activity against Candida albicans
# Escherichia coli [10] = test: Antibacterial activity against Escherichia coli
# Staphylococcus aureus [11] = test: Antibacterial activity against Staphylococcus aureus
# Bacillus subtilis = test: Antibacterial activity against Bacillus subtilis
# Enterococcus faecalis [12] = test: Antibacterial activity against Enterococcus faecalis
# Staphylococcus aureus [13] = test: Antibacterial activity against methicillin-resistant Staphylococcus aureus N315
# Staphylococcus aureus [14] = test: Antibacterial activity against Staphylococcus aureus ATCC 25923
# Escherichia coli [15] = test: Antibacterial activity against Escherichia coli ATCC 25922
# Acinetobacter baumannii = test: Antibacterial activity against Acinetobacter baumannii
# Pseudomonas aeruginosa [16] = test: Antibacterial activity against Pseudomonas aeruginosa ATCC 27853
# Klebsiella pneumoniae [17] = test: Antibacterial activity against Klebsiella pneumoniae
# Staphylococcus aureus [18] = test: Antibacterial activity against Staphylococcus aureus ATCC 29213
compound,measurement,setting,value
COc1cc(/C=C(\C#N)n2cc([N+](=O)[O-])nc2C)c2c(c1OCc1cccc(Cl)c1)CN1CCc3cc4c(cc3C1C2)OCO4 (stereo unspecified),MIC,Escherichia coli [1],3 to 1020 µM
same,MIC,Staphylococcus aureus [2],3 to 1020 µM
same,MIC,Klebsiella pneumoniae [3],3 to 1020 µM
same,MIC,Pseudomonas aeruginosa [4],3 to 1020 µM
same,MIC,Staphylococcus aureus [5],3 to 1020 µM
same,MIC,Enterococcus faecalis [6],3 to 1020 µM
same,MIC,Staphylococcus aureus [7],3 to 1020 µM
same,MIC,Pseudomonas aeruginosa [8],3 to 1020 µM
CCCCCCCCCCOc1c(OC)cc(/C=C(\C#N)n2cc([N+](=O)[O-])nc2C)c2c1CN1CCc3cc4c(cc3C1C2)OCO4 (stereo unspecified),MIC,Escherichia coli [1],3 to 1020 µM
same,MIC,Staphylococcus aureus [2],3 to 1020 µM
same,MIC,Klebsiella pneumoniae [3],3 to 1020 µM
same,MIC,Pseudomonas aeruginosa [4],3 to 1020 µM
same,MIC,Staphylococcus aureus [5],3 to 1020 µM
same,MIC,Enterococcus faecalis [6],3 to 1020 µM
same,MIC,Staphylococcus aureus [7],3 to 1020 µM
same,MIC,Pseudomonas aeruginosa [8],3 to 1020 µM
CC(=O)N1N=C(Cn2c([N+](=O)[O-])cnc2C)OC1(C)c1ccccc1 (stereo unspecified),MIC,Pseudomonas aeruginosa [9],0.25 to 0.5 µg/mL
same,MIC,Candida albicans,0.25 to 0.5 µg/mL
same,MIC,Escherichia coli [10],0.25 to 0.5 µg/mL
same,MIC,Staphylococcus aureus [11],0.25 to 0.5 µg/mL
same,MIC,Bacillus subtilis,0.25 to 0.5 µg/mL
Cc1ncc([N+](=O)[O-])n1CC(O)CN1C(=O)c2cccc3c(N4CCCCC4)ccc(c23)C1=O (stereo unspecified),MIC,Enterococcus faecalis [12],69 to 1140 µM
same,MIC,Staphylococcus aureus [13],69 to 1140 µM
same,MIC,Pseudomonas aeruginosa [9],69 to 1140 µM
same,MIC,Staphylococcus aureus [14],69 to 1140 µM
same,MIC,Escherichia coli [15],69 to 1140 µM
same,MIC,Escherichia coli [10],69 to 1140 µM
same,MIC,Acinetobacter baumannii,69 to 1140 µM
same,MIC,Pseudomonas aeruginosa [16],69 to 1140 µM
same,MIC,Klebsiella pneumoniae [17],69 to 1140 µM
same,MIC,Staphylococcus aureus [18],69 to 1140 µM
C#CCOc1c(OC)cc(/C=C(\C#N)n2cc([N+](=O)[O-])nc2C)c2c1CN1CCc3cc4c(cc3C1C2)OCO4 (stereo unspecified),MIC,Escherichia coli [1],3 to 1020 µM
same,MIC,Staphylococcus aureus [2],3 to 1020 µM
same,MIC,Klebsiella pneumoniae [3],3 to 1020 µM
same,MIC,Pseudomonas aeruginosa [4],3 to 1020 µM
same,MIC,Staphylococcus aureus [5],3 to 1020 µM
same,MIC,Enterococcus faecalis [6],3 to 1020 µM
same,MIC,Staphylococcus aureus [7],3 to 1020 µM
same,MIC,Pseudomonas aeruginosa [8],3 to 1020 µM
COc1ccc2cc3[n+](cc2c1OC)CCc1cc2c(cc1-3)OCO2 [BERBERINE],MIC,Escherichia coli [1],11 to 688 µM
same,MIC,Staphylococcus aureus [2],11 to 688 µM
same,MIC,Klebsiella pneumoniae [3],11 to 688 µM
same,MIC,Pseudomonas aeruginosa [4],11 to 688 µM
same,MIC,Staphylococcus aureus [5],11 to 688 µM
same,MIC,Enterococcus faecalis [6],11 to 688 µM
same,MIC,Staphylococcus aureus [7],11 to 688 µM
same,MIC,Pseudomonas aeruginosa [8],11 to 688 µM
OC(Cn1cncn1)(Cn1cncn1)c1ccc(F)cc1F [FLUCONAZOLE],MIC,Pseudomonas aeruginosa [9],0.25 µg/mL
same,MIC,Candida albicans,0.25 µg/mL
same,MIC,Escherichia coli [10],0.25 µg/mL
same,MIC,Staphylococcus aureus [11],0.25 µg/mL
same,MIC,Bacillus subtilis,0.25 µg/mL
NC[C@H]1O[C@H](O[C@H]2[C@H](O)[C@@H](O[C@H]3O[C@H](CO)[C@@H](O)[C@H](N)[C@H]3O)[C@H](N)C[C@@H]2N)[C@H](O)[C@@H](O)[C@@H]1O [KANAMYCIN],MIC,Pseudomonas aeruginosa [9],1.56 to 3.12 µg/mL
same,MIC,Escherichia coli [10],1.56 to 3.12 µg/mL
same,MIC,Staphylococcus aureus [11],1.56 to 3.12 µg/mL
same,MIC,Bacillus subtilis,1.56 to 3.12 µg/mL
NC(=O)N/N=C/c1ccc([N+](=O)[O-])o1 [NITROFURAZONE],MIC,Pseudomonas aeruginosa [9],0.25 to 0.5 µg/mL
same,MIC,Candida albicans,0.25 to 0.5 µg/mL
same,MIC,Escherichia coli [10],0.25 to 0.5 µg/mL
same,MIC,Staphylococcus aureus [11],0.25 to 0.5 µg/mL
same,MIC,Bacillus subtilis,0.25 to 0.5 µg/mL
